Assay in all cases: Assay B: in vitro antibacterial activity, broth microdilution MIC (NCCLS)
What all share (type): cell-based
Background: Broth dilution looks for growth in wells or tubes with falling amounts of substance.

In assay [1] the test system is Streptococcus pneumoniae ATCC 6303. The following applies: Table 2, Assay B, Mueller Hinton broth with 3% lysed horse blood, 20 to 24 hr; code F = Streptococcus pneumoniae ATCC 6303; unit assumed. Put shortly:
(§1)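 Growth inhibition read by eye after incubation at 35° C (16 to 20 hr; 20 to 24 hr for S. pneumoniae and H. influenzae). Medium: cation-adjusted Mueller Hinton broth, supplemented with 3% lysed horse blood or with 5 g/L yeast extract, 0.3 mmol/L hematin and 15 mg/L NAD, respectively.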

Assay [2] deals with Escherichia coli JUHL. The following applies: Table 2, Assay B, cation-adjusted Mueller Hinton broth, 35° C., 16 to 20 hr; code D = Escherichia coli JUHL; unit assumed. In outline: as §1
Assay [3] concerns Haemophilus influenzae DILL AMP R. The conditions noted are these: Table 2, Assay B, Mueller Hinton broth with yeast extract, hematin and NAD, 20 to 24 hr; code E = Haemophilus influenzae DILL AMP R; unit assumed. In outline: as §1
Assay [4] concerns Staphylococcus aureus ATCC 6538P. The conditions noted are these: Table 2, Assay B, cation-adjusted Mueller Hinton broth, 35° C., 16 to 20 hr; code A = Staphylococcus aureus ATCC 6538P; unit assumed. Put shortly: as §1
In assay [5] the test system is Enterococcus faecalis PIU 1967. The following applies: Table 2, Assay B, cation-adjusted Mueller Hinton broth, 35° C., 16 to 20 hr; code B = Enterococcus faecalis PIU 1967; unit assumed. Put shortly: as §1

Here are results for 17 compounds from patent publication US20020049223A1, “Quinoline and naphthyridine carboxylic acid antibacterials” (priority 1999, published 2002).

Compound `COc1c(-c2cc3c(s2)CC(NC(C)=O)C3)ccc2c(=O)c(C(=O)O)cn(C3CC3)c12` (stereo not shown) [Example 252, 7-(5-(acetylamino)-5,6-dihydro-4H-cyclopenta[b]thien-2-yl)-1-cyclopropyl-8-methoxy-4-oxo-1,4-dihydro-3-quinolinecarboxylic acid] gave an Antibacterial Activity (MIC's), F in assay [1] of 1 µg/mL. In assay [2], the Antibacterial Activity (MIC's), D came to 4 µg/mL. The compound further yielded an Antibacterial Activity (MIC's), E in assay [3] of 0.25 µg/mL. The Antibacterial Activity (MIC's), A in assay [4] was 0.5 µg/mL. Also, the Antibacterial Activity (MIC's), B in assay [5] is 1 µg/mL.
The compound `COc1c(-c2cc3c(s2)CC(NS(C)(=O)=O)C3)ccc2c(=O)c(C(=O)O)cn(C3CC3)c12` (stereo not shown) [Example 254, 1-cyclopropyl-8-methoxy-7-(5-((methylsulfonyl)amino)-5,6-dihydro-4H-cyclopenta[b]thien-2-yl)-4-oxo-1,4-dihydro-3-quinolinecarboxylic acid] showed an Antibacterial Activity (MIC's), F in assay [1] of 0.25 µg/mL. Besides, the Antibacterial Activity (MIC's), D in assay [2] is 1 µg/mL. Further, in assay [3], the Antibacterial Activity (MIC's), E was determined as 0.06 µg/mL. In assay [4], this compound came in with an Antibacterial Activity (MIC's), A of 0.06 µg/mL. In assay [5], the Antibacterial Activity (MIC's), B is 0.5 µg/mL.
`COc1c(-c2cc3c(s2)CC(=NOCc2ccccc2)C3)ccc2c(=O)c(C(=O)O)cn(C3CC3)c12` [Example 255] had an Antibacterial Activity (MIC's), F in assay [1] of 8 µg/mL. The Antibacterial Activity (MIC's), D in assay [2] was found to be 32 µg/mL. This compound also yielded an Antibacterial Activity (MIC's), E in assay [3] of 2 µg/mL. Moreover, the Antibacterial Activity (MIC's), A in assay [4] turned out to be 0.5 µg/mL. Besides, the Antibacterial Activity (MIC's), B in assay [5] stood at 4 µg/mL.
Compound `COc1c(-c2cc3c(s2)C(O)C2(CC3)CC2)ccc2c(=O)c(C(=O)O)cn(C3CC3)c12` (stereo not shown) [Example 267, 7-(7-hydroxy-6-spirocyclopropyl-4,5,6,7-tetrahydro-1-benzothien-2-yl)-1-cyclopropyl-8-methoxy-4-oxo-1,4-dihydroquinoline-3-carboxylic acid] displayed an Antibacterial Activity (MIC's), F in assay [1] of 0.25 µg/mL. In assay [2], this compound showed an Antibacterial Activity (MIC's), D of 0.5 µg/mL. In assay [3], this compound yielded an Antibacterial Activity (MIC's), E of 0.06 µg/mL. The compound further yielded an Antibacterial Activity (MIC's), A in assay [4] not above 0.004 µg/mL. The Antibacterial Activity (MIC's), B in assay [5] was 0.125 µg/mL.
The matching figures for `COc1c(-c2cc3c(s2)C(N)CC(C)(C)C3)ccc2c(=O)c(C(=O)O)cn(C3CC3)c12.Cl` (stereo not shown) [Example 268, 7-(7-amino-5,5-dimethyl-4,5,6,7-tetrahydro-1-benzothien-2-yl)-1-cyclopropyl-8-methoxy-4-oxo-1,4-dihydroquinoline-3-carboxylic acid hydrochloride]: 0.06 µg/mL, 0.5 µg/mL, 0.25 µg/mL, 0.03 µg/mL and 0.25 µg/mL.
The like results for `Cl.NC1CCCc2cc(-c3nc4c(cc3F)c(=O)c(C(=O)O)cn4C3CC3)sc21` (stereo not shown) [Example 271, 7-(7-amino-4,5,6,7-tetrahydro-1-benzothien-2-yl)-1-cyclopropyl-6-fluoro-4-oxo-1,4-dihydro-1,8-naphthyridine-3-carboxylic acid hydrochloride] were, in that order, not above 0.004 µg/mL, not above 0.004 µg/mL, not above 0.004 µg/mL, not above 0.004 µg/mL and 0.015 µg/mL.
The matching figures for `O=C(O)c1cn(C2CC2)c2cc(-c3cc4c(s3)C(O)CCC4)ccc2c1=O` (stereo not shown) [Example 280, 1-cyclopropyl-7-(7-hydroxy-4,5,6,7-tetrahydro-1-benzothien-2-yl)-4-oxo-1,4-dihydroquinoline-3-carboxylic acid]: 0.25 µg/mL, 0.125 µg/mL, 0.06 µg/mL, 0.015 µg/mL and 0.125 µg/mL.
On to `O=C(O)c1cn(C2CC2)c2cc(-c3cc4c(s3)CCCC4O)ccc2c1=O` (stereo not shown) [Example 281, 1-cyclopropyl-7-(4-hydroxy-4,5,6,7-tetrahydro-1-benzothien-2-yl)-4-oxo-1,4-dihydroquinoline-3-carboxylic acid], for which the Antibacterial Activity (MIC's), F in assay [1] amounted to 0.25 µg/mL. For the same compound, the Antibacterial Activity (MIC's), D in assay [2] is 0.125 µg/mL. The compound also displayed an Antibacterial Activity (MIC's), E in assay [3] of 0.06 µg/mL. Moreover, the Antibacterial Activity (MIC's), A in assay [4] stood at 0.03 µg/mL. The compound further came in with an Antibacterial Activity (MIC's), B in assay [5] of 0.125 µg/mL.
In assay [1], `Cl.NC1CCCc2cc(-c3ccc4c(=O)c(C(=O)O)cn(C5CC5)c4n3)sc21` (stereo not shown) [Example 282, 7-(7-amino-4,5,6,7-tetrahydro-1-benzothien-2-yl)-1-cyclopropyl-4-oxo-1,4-dihydro-1,8-naphthyridine-3-carboxylic acid hydrochloride] had an Antibacterial Activity (MIC's), F of 0.015 µg/mL. This compound also yielded an Antibacterial Activity (MIC's), D in assay [2] of 0.015 µg/mL. This compound also returned an Antibacterial Activity (MIC's), E in assay [3] of 0.03 µg/mL. The Antibacterial Activity (MIC's), A in assay [4] came to 0.008 µg/mL. In assay [5], the Antibacterial Activity (MIC's), B worked out at 0.03 µg/mL.
In assay [1], `Cl.NC1CCCc2sc(-c3ccc4c(=O)c(C(=O)O)cn(C5CC5)c4c3)cc21` (stereo not shown) [Example 287, 7-(4-amino-4,5,6,7-tetrahydro-1-benzothien-2-yl)-1-cyclopropyl-4-oxo-1,4-dihydroquinoline-3-carboxylic acid hydrochloride] had an Antibacterial Activity (MIC's), F of 0.03 µg/mL. In assay [2], this compound gave an Antibacterial Activity (MIC's), D of 0.06 µg/mL. In assay [3], the Antibacterial Activity (MIC's), E came out at 0.03 µg/mL. The Antibacterial Activity (MIC's), A in assay [4] is 0.03 µg/mL. The compound also registered an Antibacterial Activity (MIC's), B in assay [5] of 0.125 µg/mL.
`Cl.NC1CCCc2cc(-c3ccc4c(=O)c(C(=O)O)cn(C5CC5)c4c3)sc21` (stereo not shown) [Example 288, 7-(7-amino-4,5,6,7-tetrahydro-1-benzothien-2-yl)-1-cyclopropyl-4-oxo-1,4-dihydroquinoline-3-carboxylic acid hydrochloride]: the Antibacterial Activity (MIC's), F in assay [1] worked out at 0.03 µg/mL. Further, the Antibacterial Activity (MIC's), D in assay [2] is 0.03 µg/mL. In addition, the Antibacterial Activity (MIC's), E in assay [3] was found to be 0.015 µg/mL. In assay [4], the Antibacterial Activity (MIC's), A is 0.03 µg/mL. The Antibacterial Activity (MIC's), B in assay [5] amounted to 0.125 µg/mL.
In assay [1], `CNC1CCCc2sc(-c3cc4c(cc3F)c(=O)c(C(=O)O)cn4C3CC3)cc21.Cl` (stereo not shown) [Example 290, 1-cyclopropyl-6-fluoro-7-(4-(methylamino)-4,5,6,7-tetrahydro-1-benzothien-2-yl)-4-oxo-1,4-dihydroquinoline-3-carboxylic acid hydrochloride] came in with an Antibacterial Activity (MIC's), F of 0.03 µg/mL. This compound also had an Antibacterial Activity (MIC's), D in assay [2] of 0.03 µg/mL. The Antibacterial Activity (MIC's), E in assay [3] was determined as 0.015 µg/mL. For the same compound, in assay [4], the Antibacterial Activity (MIC's), A came to 0.03 µg/mL. The Antibacterial Activity (MIC's), B in assay [5] stood at 0.125 µg/mL.
In assay [1], `CNC1CCCc2sc(-c3c(F)cc4c(=O)c(C(=O)O)cn(C5CC5)c4c3F)cc21.Cl` (stereo not shown) [Example 291, 1-cyclopropyl-6,8-difluoro-7-(4-(methylamino)-4,5,6,7-tetrahydro-1-benzothien-2-yl)-4-oxo-1,4-dihydroquinoline-3-carboxylic acid hydrochloride] registered an Antibacterial Activity (MIC's), F of 0.03 µg/mL. The Antibacterial Activity (MIC's), D in assay [2] is 0.03 µg/mL. The Antibacterial Activity (MIC's), E in assay [3] was 0.015 µg/mL. The same compound gave an Antibacterial Activity (MIC's), A in assay [4] of 0.015 µg/mL. In assay [5], this compound came in with an Antibacterial Activity (MIC's), B of 0.125 µg/mL.
As for `O=C(O)c1cn(C2CC2)c2cc(-c3cc4c(s3)C(O)CCC4)c(F)cc2c1=O` (stereo not shown) [Example 293, 1-cyclopropyl-6-fluoro-7-(7-hydroxy-4,5,6,7-tetrahydro-1-benzothien-2-yl)-4-oxo-1,4-dihydroquinoline-3-carboxylic acid], the Antibacterial Activity (MIC's), F in assay [1] worked out at 0.03 µg/mL. Besides, in assay [2], the Antibacterial Activity (MIC's), D is 0.015 µg/mL. In assay [3], this compound displayed an Antibacterial Activity (MIC's), E not above 0.004 µg/mL. The same compound showed an Antibacterial Activity (MIC's), A in assay [4] not above 0.004 µg/mL. This compound gave an Antibacterial Activity (MIC's), B in assay [5] of 0.008 µg/mL.
Compound `O=C(O)c1cn(C2CC2)c2c(F)c(-c3cc4c(s3)CCCC4O)c(F)cc2c1=O` (stereo not shown) [Example 294, 1-cyclopropyl-6,8-difluoro-7-(4-hydroxy-4,5,6,7-tetrahydro-1-benzothien-2-yl)-4-oxo-1,4-dihydroguinoline-3-carboxylic acid] returned an Antibacterial Activity (MIC's), F in assay [1] of 0.03 µg/mL. The same compound displayed an Antibacterial Activity (MIC's), D in assay [2] of 0.03 µg/mL. The compound also registered an Antibacterial Activity (MIC's), E in assay [3] not above 0.004 µg/mL. In assay [4], this compound showed an Antibacterial Activity (MIC's), A not above 0.004 µg/mL. In assay [5], this compound came in with an Antibacterial Activity (MIC's), B of 0.015 µg/mL.
`O=C(O)c1cn(C2CC2)c2c(F)c(-c3cc4c(s3)C(O)CCC4)c(F)cc2c1=O` (stereo not shown) [Example 295, 1-cyclopropyl-6,8-difluoro-7-(7-hydroxy-4,5,6,7-tetrahydro-1-benzothien-2-yl)-4-oxo-1,4-dihydroquinoline-3-carboxylic acid]: the Antibacterial Activity (MIC's), F in assay [1] was found to be 0.03 µg/mL. The same compound had an Antibacterial Activity (MIC's), D in assay [2] of 0.03 µg/mL. The compound further showed an Antibacterial Activity (MIC's), E in assay [3] not above 0.004 µg/mL. The compound further displayed an Antibacterial Activity (MIC's), A in assay [4] not above 0.004 µg/mL. Further, the Antibacterial Activity (MIC's), B in assay [5] came to 0.008 µg/mL.
Take `O=C(O)c1cn(C2CC2)c2cc(-c3cc4c(s3)CCCC4O)c(F)cc2c1=O` (stereo not shown) [Example 296, 1-cyclopropyl-6-fluoro-7-(4-hydroxy-4,5,6,7-tetrahydro-1-benzothien-2-yl)-4-oxo-1,4-dihydroquinoline-3-carboxylic acid]: in assay [1], the Antibacterial Activity (MIC's), F worked out at 0.5 µg/mL. This compound also yielded an Antibacterial Activity (MIC's), D in assay [2] of 0.5 µg/mL. Also, the Antibacterial Activity (MIC's), E in assay [3] turned out to be 0.06 µg/mL. The Antibacterial Activity (MIC's), A in assay [4] is not above 0.004 µg/mL. Further, the Antibacterial Activity (MIC's), B in assay [5] amounted to 0.25 µg/mL.
